Data as given in patent publication US20250049674A1, “COSMETIC OR DERMATOLOGICAL COMPOSITION COMPRISING AT LEAST A MEROCYANINE AND A HYDROTROPE” (L'OREAL, priority 2021, published 2025).
≈ marks a conversion by molar mass, not a printed value.

Test: Water solubility of merocyanine (C)
Type: physicochemical
Details: at 20° C.
Excerpt: It is therefore necessary to be able to formulate UV-screening agents of merocyanine type in an aqueous medium. In particular, for cosmetic quality and performance benefits, it is advantageous that this aqueous medium be a single-phase medium.

solubility: ~500 µg/mL (≈ 1550 µM)
Compound: CCOCCOC(=O)/C(C#N)=C1\C=C(NCCCOC)CCC1 [Compound (C), 2-ethoxyethyl (2Z)-cyano{3-[(3-methoxypropyl)amino]cyclohex-2-en-1-ylidene}ethanoate]
